From US9233964B2, “Sulfamide piperazine derivatives as protein tyrosine kinase inhibitors and pharmaceutical use therof” (LEO PHARMA A/S, priority 2011, dated 2016) come the findings set out here.

Holding throughout (type): biochemical
One assay addresses T1, JAK2 (Homo sapiens, UniProt O60674).
T1 construct: All four purified enzymes contain only the catalytic domain; His (N); purchased Carna Biosciences, Inc; host or cells: baculovirus expression system
Kind of assay: JAK kinase assay (HTRF, phosphorylation of synthetic peptide), JAK2. The settings on record: catalytic domain, ATP at Km (4 μM); read-out: JAK2 kinase inhibitory activity (EC50). How it is done: (§1) Human baculovirus-expressed JAK1, 2, 3 and TYK2 were purchased from Carna Biosciences, Inc. All four purified enzymes contain only the catalytic domain. JAK1 (aa 850-1154) and TYK2 (aa 871-1187) are expressed with an N-terminally fused GST-tag, and JAK2 and JAK3 with an N-terminally fused His-tag.
(§2) Inhibition of phosphorylation of a synthetic peptide was measured in an HTRF-based assay using the TK substrate-Biotin from the Cisbio HTRFKinEASE TK kit. First, 2 μl of TK solution (TK substrate-biotin in kinase buffer [1× enzymatic buffer from HTRFKinEASE TK kit, 1 mM DTT]) is added to a plate containing 1 μl prediluted compound (final assay concentration DMSO: 0.75%). Then, 5 μl kinase-ATP mix (prepared in kinase buffer) is added to the wells and the plates are incubated at RT for 20-30 min. For all four kinases a concentration of ATP that corresponded to the Km for ATP was used. The final concentrations of buffers, substrate, kinase and ATP were: JAK1: 50 mM Hepes buffer pH 7.0, 0.01% BSA, 10 mM MgCl2, 1 mM DTT, 7 μM ATP, 50 nM SEB, 1 μM TK Substrate-Biotin and 5 ng JAK1; JAK2: 50 mM Hepes buffer pH 7.0, 0.01% BSA, 5 mM MgCl2, 1 mM DTT, 4 μM ATP, 1 μM TK Substrate-Biotin and 0.1 ng JAK2; JAK3: 50 mM Hepes buffer pH 7.0, 0.01% BSA, 5 mM MgCl2, 1 mM DTT, 2 μM ATP, 1 μM TK Substrate-Biotin and 0.3 ng JAK3; TYK2: 50 mM Hepes buffer pH 7.0, 0.01% BSA, 5 mM MgCl2, 1 mM DTT, 13 μM ATP, 50 nM SEB, 1 μM TK Substrate-Biotin and 0.8 ng TYK2. Thereafter, the kinase reaction is stopped by adding 4 μl detection mix (final concentrations: 50 mM Hepes buffer pH 7.0, 0.01% BSA, 0.8 M KF, 20 mM EDTA, 42 nM Streptavidin-XL665 and 1:400 STK Ab Cryptate) and the plates are incubated overnight in the dark. The HTRF signal is read using an Envision plate reader.
A general note: In TR-FRET formats the signal depends on donor and acceptor labels being close together.

The target of the next assay is T2, JAK3 (Homo sapiens, UniProt P52333).
T2 construct: All four purified enzymes contain only the catalytic domain; His (N); purchased Carna Biosciences, Inc; host or cells: baculovirus expression system
Kind of assay: JAK kinase assay (HTRF, phosphorylation of synthetic peptide), JAK3. As to conditions: catalytic domain, ATP at Km (2 μM); read-out: JAK3 kinase inhibitory activity (EC50). The procedure: as §1, §2

In another assay the target is T3, JAK1 (Homo sapiens, UniProt P23458).
T3 construct: JAK1 (aa 850-1154) and TYK2 (aa 871-1187) are expressed with an N-terminally fused GST-tag; GST (N); purchased Carna Biosciences, Inc; host or cells: baculovirus expression system
Kind of assay: JAK kinase assay (HTRF, phosphorylation of synthetic peptide), JAK1. As to conditions: catalytic domain, ATP at Km (7 μM); read-out: JAK1 kinase inhibitory activity (EC50). The procedure: as §1, §2

The next assay concerns the target T4, TYK2 (Homo sapiens, UniProt P29597).
T4 construct: JAK1 (aa 850-1154) and TYK2 (aa 871-1187) are expressed with an N-terminally fused GST-tag; GST (N); purchased Carna Biosciences, Inc; host or cells: baculovirus expression system
T4 sequence (P29597 871-1187): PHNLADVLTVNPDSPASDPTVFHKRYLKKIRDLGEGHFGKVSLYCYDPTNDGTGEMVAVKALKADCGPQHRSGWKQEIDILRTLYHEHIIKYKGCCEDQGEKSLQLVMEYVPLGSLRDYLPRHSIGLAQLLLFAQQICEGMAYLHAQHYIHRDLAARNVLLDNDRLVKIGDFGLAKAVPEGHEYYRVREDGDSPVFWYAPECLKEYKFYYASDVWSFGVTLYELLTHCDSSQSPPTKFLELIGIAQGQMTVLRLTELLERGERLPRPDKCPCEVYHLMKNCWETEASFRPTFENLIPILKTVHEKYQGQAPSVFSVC
Kind of assay: JAK kinase assay (HTRF, phosphorylation of synthetic peptide), TYK2. As to conditions: catalytic domain, ATP at Km (13 μM); read-out: TYK2 kinase inhibitory activity (EC50). The procedure: as §1, §2

The structures appear in SMILES notation. pEC50: −log10 of the molar value. Some results are limits rather than exact numbers.

T3 sequence (P23458 850-1154): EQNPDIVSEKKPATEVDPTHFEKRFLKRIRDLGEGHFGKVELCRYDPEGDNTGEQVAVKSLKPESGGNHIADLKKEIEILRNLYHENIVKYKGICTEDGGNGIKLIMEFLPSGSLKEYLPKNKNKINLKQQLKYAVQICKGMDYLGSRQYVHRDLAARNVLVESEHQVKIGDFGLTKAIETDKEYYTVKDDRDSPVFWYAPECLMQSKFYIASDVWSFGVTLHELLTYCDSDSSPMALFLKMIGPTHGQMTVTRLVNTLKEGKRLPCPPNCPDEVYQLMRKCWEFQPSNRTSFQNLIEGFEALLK
T2 sequence (P52333 822-1111 limits assumed): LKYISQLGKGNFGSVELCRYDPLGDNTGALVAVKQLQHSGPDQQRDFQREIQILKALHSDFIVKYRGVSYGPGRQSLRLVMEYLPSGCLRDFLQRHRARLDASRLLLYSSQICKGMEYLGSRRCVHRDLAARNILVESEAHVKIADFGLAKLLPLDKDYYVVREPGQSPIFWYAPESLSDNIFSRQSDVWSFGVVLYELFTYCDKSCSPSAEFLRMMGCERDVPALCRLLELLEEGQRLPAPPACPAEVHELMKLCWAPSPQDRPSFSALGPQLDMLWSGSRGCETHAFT
T1 sequence (O60674 849-1124 limits assumed): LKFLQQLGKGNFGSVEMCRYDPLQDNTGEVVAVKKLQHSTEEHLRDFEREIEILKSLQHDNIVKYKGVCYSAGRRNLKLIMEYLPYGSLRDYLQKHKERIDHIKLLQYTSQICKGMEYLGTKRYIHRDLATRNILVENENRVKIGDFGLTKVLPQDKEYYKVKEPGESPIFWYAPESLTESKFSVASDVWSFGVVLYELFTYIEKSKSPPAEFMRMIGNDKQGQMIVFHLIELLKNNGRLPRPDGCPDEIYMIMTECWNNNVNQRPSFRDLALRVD

As to `O=S(=O)(N(CCO)CCc1ccccc1)N1CCN(c2ncnc3[nH]ccc23)CC12CC2` [Example 25, 7-(7H-Pyrrolo[2,3-d]pyrimidin-4-yl)-4,7-diaza-spiro[2.5]octane-4-sulfonic acid (2-hydroxy-ethyl)-phenethyl-amide], the pEC50 on JAK2, at JAK3, at JAK1 and on TYK2 was more than 7.00 throughout.
As to `CN(CCn1cccc1)S(=O)(=O)N1CCN(c2ncnc3[nH]ccc23)CC12CC2` [Example 26, 7-(7H-Pyrrolo[2,3-d]pyrimidin-4-yl)-4,7-diaza-spiro[2.5]octane-4-sulfonic acid methyl-(2-pyrrol-1-yl-ethyl)-amide], the pEC50 at JAK2, on JAK3, on JAK1 and on TYK2 was more than 7.00 throughout.
Regarding `CC(C)CCN(C)S(=O)(=O)N1CCN(c2ncnc3[nH]ccc23)CC12CC2` [Example 27, 7-(7H-Pyrrolo[2,3-d]pyrimidin-4-yl)-4,7-diaza-spiro[2.5]octane-4-sulfonic acid methyl-(3-methyl-butyl)-amide], the pEC50 (as a rule, −log10 of the EC50, conventionally taken in molar units) is more than 7.00 at JAK2, more than 7.00 on JAK3, more than 7.00 at JAK1 and 6.30 to 7.00 on TYK2.
`CN(Cc1ccccn1)S(=O)(=O)N1CCN(c2ncnc3[nH]ccc23)CC12CC2` [Example 28, 7-(7H-Pyrrolo[2,3-d]pyrimidin-4-yl)-4,7-diaza-spiro[2.5]octane-4-sulfonic acid methyl-pyridin-2-ylmethyl-amide]: the pEC50 on JAK2 is more than 7.00; on JAK3, 6.30 to 7.00; at JAK1, more than 7.00; at TYK2, 6.30 to 7.00.
Consider `CN(CCCc1ccc(C#N)cc1)S(=O)(=O)N1CCN(c2ncnc3[nH]ccc23)CC12CC2` [Example 29, 7-(7H-Pyrrolo[2,3-d]pyrimidin-4-yl)-4,7-diaza-spiro[2.5]octane-4-sulfonic acid [3-(4-cyano-phenyl)-propyl]-methyl-amide], for which the pEC50 on JAK2 was more than 7.00; at JAK3 it was 6.30 to 7.00; on JAK1, more than 7.00; at TYK2, less than 6.30.
Take `CN(CCCc1cccc(C#N)c1)S(=O)(=O)N1CCN(c2ncnc3[nH]ccc23)CC12CC2` [Example 30, 7-(7H-Pyrrolo[2,3-d]pyrimidin-4-yl)-4,7-diaza-spiro[2.5]octane-4-sulfonic acid [3-(3-cyano-phenyl)-propyl]-methyl-amide]: the pEC50 is more than 7.00 on JAK2, 6.30 to 7.00 at JAK3, more than 7.00 on JAK1 and less than 6.30 at TYK2.
With `CN(CCOc1ccccc1)S(=O)(=O)N1CCN(c2ncnc3[nH]ccc23)CC12CC2` [Example 31, 7-(7H-Pyrrolo[2,3-d]pyrimidin-4-yl)-4,7-diaza-spiro[2.5]octane-4-sulfonic acid methyl-(2-phenoxy-ethyl)-amide], the pEC50 on JAK2 is more than 7.00; on JAK3 it was 6.30 to 7.00; at JAK1, more than 7.00; on TYK2 it was 6.30 to 7.00.
Turning to `Cc1noc(C)c1CCN(C)S(=O)(=O)N1CCN(c2ncnc3[nH]ccc23)CC12CC2` [Example 32, 7-(7H-Pyrrolo[2,3-d]pyrimidin-4-yl)-4,7-diaza-spiro[2.5]octane-4-sulfonic acid [2-(3,5-dimethyl-isoxazol-4-yl)-ethyl]-methyl-amide], the pEC50 on JAK2 was more than 7.00; on JAK3 it was more than 7.00; on JAK1, more than 7.00; at TYK2 it was 6.30 to 7.00.
Turning to `COC(=O)CN(C)S(=O)(=O)N1CCN(c2ncnc3[nH]ccc23)CC12CC2` [Example 34, {Methyl-[7-(7H-pyrrolo[2,3-d]pyrimidin-4-yl)-4,7-diaza-spiro[2.5]octane-4-sulfonyl]-amino}-acetic acid methyl ester], the pEC50 on JAK2 is more than 7.00; on JAK3 it was more than 7.00; on JAK1, more than 7.00; at TYK2, 6.30 to 7.00.
`CN(CCCC#N)S(=O)(=O)N1CCN(c2ncnc3[nH]ccc23)CC12CC2` [Example 35, 7-(7H-Pyrrolo[2,3-d]pyrimidin-4-yl)-4,7-diaza-spiro[2.5]octane-4-sulfonic acid (3-cyano-propyl)-methyl-amide]: the pEC50 on JAK2, on JAK3, on JAK1 and at TYK2 was more than 7.00 throughout.
As to `CN(C)C(=O)CN(C)S(=O)(=O)N1CCN(c2ncnc3[nH]ccc23)CC12CC2` [Example 36, N,N-Dimethyl-2-{methyl-[7-(7H-pyrrolo[2,3-d]pyrimidin-4-yl)-4,7-diaza-spiro[2.5]octane-4-sulfonyl]-amino}-acetamide], the pEC50 on JAK2 is more than 7.00; at JAK3 it was 6.30 to 7.00; on JAK1 it was more than 7.00; at TYK2, 6.30 to 7.00.
In the case of `CN(Cc1ccc(C#N)cc1)S(=O)(=O)N1CCN(c2ncnc3[nH]ccc23)CC12CC2` [Example 37, 7-(7H-Pyrrolo[2,3-d]pyrimidin-4-yl)-4,7-diaza-spiro[2.5]octane-4-sulfonic acid (4-cyano-benzyl)-methyl-amide], the negative logarithm of the EC50 (pEC50) at JAK2 is more than 7.00; on JAK3 it was more than 7.00; at JAK1 it was more than 7.00; on TYK2, 6.30 to 7.00.
On to `O=S(=O)(N1CCCCC1)N1CCN(c2ncnc3[nH]ccc23)CC12CC2` [Example 38, 4-[4-(Piperidine-1-sulfonyl)-4,7-diaza-spiro[2.5]oct-7-yl]-7H-pyrrolo[2,3-d]pyrimidine], for which the pEC50 on JAK2 is more than 7.00; at JAK3, 6.30 to 7.00; on JAK1 it was 6.30 to 7.00; at TYK2, 6.30 to 7.00.
Take `N#CC1CCN(S(=O)(=O)N2CCN(c3ncnc4[nH]ccc34)CC23CC3)CC1` [Example 39, 1-[7-(7H-Pyrrolo[2,3-d]pyrimidin-4-yl)-4,7-diaza-spiro[2.5]octane-4-sulfonyl]-piperidine-4-carbonitrile]: the pEC50 on JAK2 was more than 7.00; on JAK3, 6.30 to 7.00; at JAK1, more than 7.00; on TYK2, less than 6.30.
As for `CN(c1ccccc1)S(=O)(=O)N1CCN(c2ncnc3[nH]ccc23)CC12CC2` [Example 40, 7-(7H-Pyrrolo[2,3-d]pyrimidin-4-yl)-4,7-diaza-spiro[2.5]octane-4-sulfonic acid methyl-phenyl-amide], the pEC50 at JAK2 is more than 7.00; on JAK3, 6.30 to 7.00; on JAK1, more than 7.00; on TYK2, 6.30 to 7.00.
As for `N#CC1CCCN(S(=O)(=O)N2CCN(c3ncnc4[nH]ccc34)CC23CC3)C1` (stereo not drawn) [Example 42, 1-[7-(7H-Pyrrolo[2,3-d]pyrimidin-4-yl)-4,7-diaza-spiro[2.5]octane-4-sulfonyl]-piperidine-3-carbonitrile], the pEC50 at JAK2 was more than 7.00; at JAK3, 6.30 to 7.00; at JAK1 it was more than 7.00; at TYK2 it was less than 6.30.
`CN(C)S(=O)(=O)N1CCN(c2ncnc3[nH]ccc23)CC12CC2` [Example 45, 7-(7H-Pyrrolo[2,3-d]pyrimidin-4-yl)-4,7-diaza-spiro[2.5]octane-4-sulfonic acid dimethylamide]: the pEC50 is more than 7.00 at JAK2, more than 7.00 on JAK3, more than 7.00 on JAK1 and 6.30 to 7.00 on TYK2.
With `CCOC(=O)CN(CCc1ccccc1)S(=O)(=O)N1CCN(c2ncnc3[nH]ccc23)CC12CC2` [Example 46, {Phenethyl-[7-(7H-pyrrolo[2,3-d]pyrimidin-4-yl)-4,7-diaza-spiro[2.5]octane-4-sulfonyl]-amino}-acetic acid ethyl ester], the pEC50 on JAK2 was more than 7.00; on JAK3, 6.30 to 7.00; at JAK1 it was more than 7.00; on TYK2, less than 6.30.
